Reference: ChEMBL document CHEMBL1201862, “PubChem BioAssay data set” (2004)
Activity calls are given as the source filed them.

Key:
[1] = Luminescence Cell-Based Dose Response HTS to Identify Inhibitors of 5'UTR Stem-Loop Driven Prion Protein mRNA Translation in H4 Neuroglioblastoma Cells. [Related pubchem assays: 1827 (Project Summary), 1813 (Primary HTS)]; format: functional
[2] = target: T1, Protein skinhead-1 (Caenorhabditis elegans, UniProt P34707); format: functional
T1 sequence (P34707 whole entry): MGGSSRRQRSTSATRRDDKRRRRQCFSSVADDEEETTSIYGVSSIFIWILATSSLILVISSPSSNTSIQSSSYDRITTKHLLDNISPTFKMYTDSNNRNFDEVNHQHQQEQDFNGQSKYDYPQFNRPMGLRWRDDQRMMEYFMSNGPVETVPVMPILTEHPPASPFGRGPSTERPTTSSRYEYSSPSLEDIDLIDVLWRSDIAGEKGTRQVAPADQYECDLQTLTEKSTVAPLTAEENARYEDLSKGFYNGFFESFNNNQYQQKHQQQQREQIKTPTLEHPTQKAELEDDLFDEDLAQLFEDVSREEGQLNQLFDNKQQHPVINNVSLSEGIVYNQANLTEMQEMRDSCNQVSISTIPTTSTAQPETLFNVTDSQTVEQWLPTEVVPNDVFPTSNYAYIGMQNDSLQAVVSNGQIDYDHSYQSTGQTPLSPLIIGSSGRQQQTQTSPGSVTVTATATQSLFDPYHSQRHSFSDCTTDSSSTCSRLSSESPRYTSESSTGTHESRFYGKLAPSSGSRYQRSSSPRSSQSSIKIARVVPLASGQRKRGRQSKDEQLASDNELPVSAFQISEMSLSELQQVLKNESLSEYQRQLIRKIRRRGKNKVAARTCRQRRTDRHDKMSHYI

[3] = alpha-synuclein stem-loop luciferase translation blockers – H4 neuroglioma cells, luminescence, confirmation (AID 1988); format: functional, cell-based
[4] = cells; format: functional, cell-based
[5] = target: T2, Nuclear receptor subfamily 0 group B member 1 (Homo sapiens, UniProt P51843); format: functional, cell-based;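 further: HEK293T cells transfected with SF-1 and DAX-1 plus StAR promoter luciferase reporter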
T2 sequence (P51843 whole entry): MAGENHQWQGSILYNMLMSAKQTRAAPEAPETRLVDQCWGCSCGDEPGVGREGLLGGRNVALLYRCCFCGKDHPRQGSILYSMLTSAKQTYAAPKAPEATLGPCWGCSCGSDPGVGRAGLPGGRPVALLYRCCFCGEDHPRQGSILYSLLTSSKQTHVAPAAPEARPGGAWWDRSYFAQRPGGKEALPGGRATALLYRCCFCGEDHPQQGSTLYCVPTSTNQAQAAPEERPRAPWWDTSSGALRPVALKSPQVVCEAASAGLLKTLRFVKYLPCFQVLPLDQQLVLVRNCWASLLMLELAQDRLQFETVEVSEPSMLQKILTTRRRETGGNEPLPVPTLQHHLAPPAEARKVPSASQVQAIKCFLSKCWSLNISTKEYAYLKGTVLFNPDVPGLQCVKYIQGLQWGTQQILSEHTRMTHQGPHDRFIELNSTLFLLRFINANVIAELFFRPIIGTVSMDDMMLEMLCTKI

[6] = Luminescence Cell-Based Dose Confirmation HTS to Identify Inhibitors of Platelet Dense Granule Release. [Related pubchem assays: 1663 (Primary HTS), 1678 (Summary of Project)]; format: functional
[7] = target: Luciferin 4-monooxygenase (Photinus pyralis, UniProt P08659); assay: inhibition of purified Photinus pyralis luciferase – biochemical, luminescence, dose response (AID 1891)
[8] = cells; format: functional, cell-based; conditions: HEK-CNG
[9] = target: Galanin receptor type 3 (Homo sapiens, UniProt O60755); assay: Fluorescence-based cell-based primary high throughput dose response assay to identify antagonists of the Galanin Receptor 3 (GalR3).; format: functional
[10] = target: Major prion protein (Homo sapiens, UniProt P04156); format: functional, cell-based
[11] = cells
[12] = Late stage assay provider results from the probe development effort to identify selective inhibitors of heat shock protein 90 (HSP90): Absorbance-based cell proliferation assay in SKBR3 cells.; format: functional; conditions: SK-BR-3
[13] = Late stage assay provider results from the probe development effort to identify selective inhibitors of heat shock protein 90 (HSP90): Absorbance-based cell proliferation assay in MCF7 cells.; format: functional
[14] = NIH3T3 cell viability loss – ATP luminescence, mouse fibroblasts, counter-screen, dose response (AID 2010); format: functional, cell-based;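 further: cells exposed to compound for about 90 hours before reading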
[15] = cells; format: functional, cell-based; remark: listed apart in the source
[16] = acridine orange displacement from DNA – biochemical, fluorescence polarization, cherry-pick, artefact control for RAD54 inhibitor project, dose response (AID 651673); format: functional
[17] = Trypanosoma cruzi growth suppression in host cells – NIH3T3 host cells, beta-gal luminescence, confirmation (AID 2044); format: functional, cell-based;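 further: intracellular parasites grown in NIH/3T3 mouse fibroblasts as host cells; luminescent beta-galactosidase reporter signal from transgenic T. cruzi replicating inside host cells; inhibitors lower the luminescence signal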
[18] = target: T3, DNA repair protein RAD52 homolog (Homo sapiens, UniProt P43351); format: functional, biochemical
T3 sequence (P43351 whole entry): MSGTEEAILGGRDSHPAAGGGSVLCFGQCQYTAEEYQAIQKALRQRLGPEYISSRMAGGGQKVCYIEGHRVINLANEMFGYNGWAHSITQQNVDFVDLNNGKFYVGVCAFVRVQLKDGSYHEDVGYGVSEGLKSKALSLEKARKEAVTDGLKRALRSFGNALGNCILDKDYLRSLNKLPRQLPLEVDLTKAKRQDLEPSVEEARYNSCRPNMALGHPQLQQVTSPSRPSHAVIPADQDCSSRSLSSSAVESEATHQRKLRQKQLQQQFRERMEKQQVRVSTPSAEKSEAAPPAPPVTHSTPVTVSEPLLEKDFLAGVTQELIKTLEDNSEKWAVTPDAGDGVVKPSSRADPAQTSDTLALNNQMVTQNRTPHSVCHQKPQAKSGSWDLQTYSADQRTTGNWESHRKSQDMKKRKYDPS

[19] = Counterscreen for activators of the function of SWI/SNF related, matrix associated, actin dependent regulator of chromatin, subfamily a, member 2 (SMARCA2, BRM): Luminescence-based cell-based high throughput dose response assay to identify non-selective compounds using the VP16 reporter assay.; format: functional
[20] = tested on: HEK293; assay: cells; conditions: Homo sapiens
[21] = tested on: INS1; assay: INS-1E survival protection against cytokine death – cell-based, luminescence, retest, dose response (AID 449756); format: functional; conditions: Rattus norvegicus, INS1;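 further: cell death triggered by IL-1 beta plus TNF-alpha plus IFN-gamma mixture; protective hits raise ATP signal compared with cytokine alone wells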
[22] = cells; format: functional, cell-based; remark: listed apart in the source
[23] = tested on: HEK293; assay: cells; conditions: Homo sapiens; remark: listed apart in the source
[24] = target: T4, DNA repair and recombination protein RAD54-like (Homo sapiens, UniProt Q92698); assay: RAD54 Holliday junction migration blockers – biochemical, fluorescence, cherry-picked samples, dose series, confirmation (AID 651657); format: functional
T4 sequence (Q92698 whole entry): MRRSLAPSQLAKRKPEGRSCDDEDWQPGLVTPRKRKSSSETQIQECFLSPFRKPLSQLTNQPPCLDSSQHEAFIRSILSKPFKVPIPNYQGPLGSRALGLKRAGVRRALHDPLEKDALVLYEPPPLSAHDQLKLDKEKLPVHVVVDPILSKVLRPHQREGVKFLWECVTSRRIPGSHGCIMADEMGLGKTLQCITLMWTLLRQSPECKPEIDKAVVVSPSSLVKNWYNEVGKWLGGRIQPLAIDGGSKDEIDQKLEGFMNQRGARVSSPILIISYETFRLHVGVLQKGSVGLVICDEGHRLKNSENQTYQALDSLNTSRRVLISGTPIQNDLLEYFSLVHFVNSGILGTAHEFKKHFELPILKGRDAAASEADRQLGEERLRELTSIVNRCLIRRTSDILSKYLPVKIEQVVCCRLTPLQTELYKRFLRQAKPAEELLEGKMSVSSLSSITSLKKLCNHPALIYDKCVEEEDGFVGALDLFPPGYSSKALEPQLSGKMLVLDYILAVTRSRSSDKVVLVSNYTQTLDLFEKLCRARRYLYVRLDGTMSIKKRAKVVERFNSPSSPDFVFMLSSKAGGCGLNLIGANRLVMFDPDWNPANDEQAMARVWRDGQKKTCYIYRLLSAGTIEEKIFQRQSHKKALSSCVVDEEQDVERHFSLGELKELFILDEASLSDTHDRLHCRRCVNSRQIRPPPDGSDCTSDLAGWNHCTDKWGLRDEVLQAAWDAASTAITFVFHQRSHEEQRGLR

[25] = target: SWI/SNF-related matrix-associated actin-dependent regulator of chromatin subfamily A member 2 (Homo sapiens, UniProt P51531); assay: Luminescence-based cell-based high throughput dose response assay to identify activators of the function of SWI/SNF related, matrix associated, actin dependent regulator of chromatin, subfamily a, member 2 (SMARCA2, BRM).; format: functional
[26] = target: T5, Short transient receptor potential channel 4 (Mus musculus, UniProt Q9QUQ5); assay: block of DAMGO-driven TRPC4 calcium entry – cell-based, HEK293 TRPC4/mu-opioid, Fluo-4 calcium, dose response (AID 434942); format: functional;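 further: potency of inhibitors blocking the TRPC4 calcium response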
T5 sequence (Q9QUQ5 whole entry): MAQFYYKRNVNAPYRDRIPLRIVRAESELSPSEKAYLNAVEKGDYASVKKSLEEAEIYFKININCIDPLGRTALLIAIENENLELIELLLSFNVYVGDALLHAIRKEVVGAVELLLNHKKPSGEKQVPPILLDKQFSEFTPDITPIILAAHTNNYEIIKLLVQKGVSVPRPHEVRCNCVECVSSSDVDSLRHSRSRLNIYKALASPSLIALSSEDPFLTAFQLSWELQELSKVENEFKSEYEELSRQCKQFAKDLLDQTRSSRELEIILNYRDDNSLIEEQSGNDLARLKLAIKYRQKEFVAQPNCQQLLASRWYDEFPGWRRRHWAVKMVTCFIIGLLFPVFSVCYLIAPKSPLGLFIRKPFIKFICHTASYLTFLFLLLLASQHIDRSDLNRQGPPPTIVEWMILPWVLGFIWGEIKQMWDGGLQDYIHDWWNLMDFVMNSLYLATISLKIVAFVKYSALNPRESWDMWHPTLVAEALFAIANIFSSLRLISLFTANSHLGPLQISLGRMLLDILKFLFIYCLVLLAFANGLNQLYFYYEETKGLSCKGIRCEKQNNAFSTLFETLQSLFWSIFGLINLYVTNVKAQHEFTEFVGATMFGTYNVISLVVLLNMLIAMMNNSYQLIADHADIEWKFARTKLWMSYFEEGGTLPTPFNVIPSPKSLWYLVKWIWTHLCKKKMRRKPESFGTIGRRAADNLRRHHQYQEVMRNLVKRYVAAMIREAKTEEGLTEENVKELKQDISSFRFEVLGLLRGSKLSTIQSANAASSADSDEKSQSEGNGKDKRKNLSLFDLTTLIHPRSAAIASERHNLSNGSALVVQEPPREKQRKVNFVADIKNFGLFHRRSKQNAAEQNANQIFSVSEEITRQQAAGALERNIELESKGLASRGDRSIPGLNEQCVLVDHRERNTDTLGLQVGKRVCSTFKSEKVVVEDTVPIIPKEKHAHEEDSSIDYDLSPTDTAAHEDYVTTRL

[27] = target: T6, Caspase-6 (Homo sapiens, UniProt P55212); assay: inhibition of CASP6 peptide cleavage – biochemical, VEID-R110 fluorescence, cherry-pick, dose response (AID 720632)
T6 sequence (P55212 whole entry): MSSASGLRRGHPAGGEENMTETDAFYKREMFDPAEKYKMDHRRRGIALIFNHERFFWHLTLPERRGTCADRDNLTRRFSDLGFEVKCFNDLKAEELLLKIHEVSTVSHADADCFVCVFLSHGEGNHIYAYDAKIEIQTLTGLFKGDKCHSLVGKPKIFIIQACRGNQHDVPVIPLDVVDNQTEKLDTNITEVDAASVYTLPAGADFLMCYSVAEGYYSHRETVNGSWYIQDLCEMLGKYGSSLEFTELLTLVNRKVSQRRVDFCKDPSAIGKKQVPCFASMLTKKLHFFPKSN

[28] = target: Caspase-7 (Homo sapiens, UniProt P55210); assay: caspase-7 enzyme inhibition, selectivity check – biochemical, DEVD-R110 fluorescence, cherry-pick, selectivity assay for caspase-6 inhibitor project, dose response (AID 743295); format: functional

With Cc1ccc(N/C=C/C(=O)c2cccs2)cc1 the EC50 [1] was 9.4 µM (active), the IC50 [2] was 39 µM (active) and the EC50 [3] was 9.77 µM (active). The IC50 [4] was > 67.5 µM (inactive), the IC50 [5] was > 0.278 µM (active) and the EC50 [6] was 6.06 µM (active). For the same compound, the EC50 [7] was 1.17 µM (active).
For CCOC(=O)c1c(O)nc(C)c(Cl)c1O, the EC50 [8] was > 29.9 µM (inactive) and the IC50 [9] was > 29.9 µM (inactive).
In the case of CC(=O)c1ccc(CCCCCCCCCC(=O)O)s1, the IC50 [10] is reported as 5.71 µM (active) and the IC50 [11] is reported as > 138 µM (inactive).
For N#Cc1cc2cc(OCCc3ccc(F)cc3)ccc2oc1=O, the IC50 [12] was 16.9 µM (inactive) and the IC50 [13] was 96.5 µM (inactive).
With OCCCNc1c2ccccc2nc2ccccc12 the EC50 [14] was 7.34 µM (active), the EC50 [15] was > 350 µM (not active) and the AC50 [16] was 55.2 µM (active). The EC50 [17] was 0.266 µM (active), the AC50 [18] was 3.08 µM (active) and the EC50 [19] was > 91.1 µM (inactive). For the same compound, the EC50 [20] was > 2.21 µM (active), the AC50 [21] was 2.44 µM (active) and the EC50 [22] was > 350 µM (not active). For the same compound, the EC50 [23] was > 59.7 µM (inactive), the AC50 [24] was 3.37 µM (active) and the EC50 [25] was > 3.38 µM (active). For the same compound, the EC50 [26] was 6.68 µM (active).
For COC(=O)CSc1nc(-c2ccccc2)nc2ccccc12, the IC50 [10] was 1.31 µM (active) and the IC50 [11] was > 138 µM (inactive).
With O=C(Nc1ccc(S(=O)(=O)Nc2cnc3ccccc3n2)cc1)c1ccc(Cl)c([N+](=O)[O-])c1 the AC50 [27] was 0.905 µM (active) and the AC50 [28] was > 70 µM (inactive).
In the case of O=C(/C=C\Nc1ccccc1Br)c1ccc2c(c1)OCO2, the IC50 [4] is reported as > 67.5 µM (inactive) and the IC50 [5] is reported as > 0.0926 µM (active).
In the case of O=C(NCc1ccco1)c1coc(=O)c(Br)c1, the IC50 [12] is reported as 27.8 µM (inactive) and the IC50 [13] is reported as 4.8 µM (active).
